Laboratory results as given in article PMC7345637, “Characterization of Synthetic Tf2 as a NaV1.3 Selective Pharmacological Probe” (Biomedicines, 2020).

What was measured:
[1] = tested on: C57BL/6J mice; test: Spontaneous pain behaviors after intraplantar injection, wildtype mice; settings: mouse, in vivo
From the text: For behavioral assessment, we used adult male wildtype or homozygous NaV1.9-deficient (NaV1.9^-/-) mice aged 6–8 weeks (~25g) on a C57BL/6J background. Homozygous Nav1.9 knockout mice on a C57BL/6J background were generated using CRISPR/Cas9 technology by the Queensland Facility for Advanced Genome Editing (The University of Queensland, Australia). In brief, two sgRNAs were designed to target exon 2 of the Scn11a gene. The deletion of exon 2 generated a frame shift mutation resulting in the introduction of stop codons in exon 3. […]
[…]. Mice were then placed individually into polyvinyl boxes (10 × 10 × 10 cm) and recorded by video for 20 min post-injection. The number of spontaneous pain behaviors, including licks, shakes, and flinches, were counted later by a blinded observer. Once spontaneous pain behavior had ceased, mechanical thresholds were assessed using an electronic von Frey apparatus (MouseMet Electronic von Frey, TopCat Metrology, Ely, UK), heat thresholds were assessed using the thermal probe test (MouseMet Thermal), and weight bearing was assessed using the Catwalk XT (Noldus Information Technology, Wageningen, The Netherlands) as previously described. To quantify weight bearing, the parameter ‘mean intensity of the 15 most intense pixels’ was used as a surrogate measure.
Data were plotted and analyzed by GraphPad Prism, versions 8.2.0 and 8.4.2. […]

[2] = tested on: NaV1.1; settings: cited from earlier work
From the text: (§1) Selective VGSC modulators remain useful tool compounds for delineating the contribution of particular isoforms to the excitability of neurons in both physiological and pathological states. […] In an attempt to rationally ...

[3] = tested on: NaV1.3; settings: cited from earlier work
From the text: as §1

[4] = tested on: mouse DRG neurons; type: cell-based
[5] = tested on: voltage-gated calcium channels (CaV); settings: cited from earlier work
From the text: Tf2 caused Ca^2+ influx in both small and large mouse adult DRG neurons, which was surprising given NaV1.3 is only expressed at significant levels in embryonic sensory neurons or in adult neurons after axotomy. […] As DRG neurons in this study were isolated from all spinal levels, we cannot rule out the presence of these NaV1.3-expressing neurons in culture. However, given the definitive lack of proteomic evidenc ...

O=C(Nc1ccc(S(=O)(=O)Nc2nccs2)cc1)C(c1ccccc1)c1ccccc1 [ICA-121431]
effect on Tf2-induced spontaneous flinching [1]: no effect on Tf2-induced spontaneous flinching
activity at NaV1.1 [2]: off-target activity at NaV1.1
NaV1.3 inhibition [3]: most potent NaV1.3 inhibitor described to the date

NC1=N[C@H](O)[C@H]2[C@H]3O[C@]4(O)O[C@@H]([C@@H](O)[C@@]2(N1)[C@@H]4O)[C@]3(O)CO [TTX, tetrodotoxin]
block of Tf2-induced DRG neuron activation [4]: completely blocked

B1: kurtoxin: scorpion toxin from Parabuthus transvaalicus (protein, UniProt P58910 1-63, looked up)
Kurtoxin: KIDGYPVDYWNCKRICWYNNKYCNDLCKGLKADSGYCWGWTLSCYCQGLPDNARIKRSGRCRA
modulation of voltage-gated calcium channels (CaV) [5]: modulate members of the family of voltage-gated calcium channels (CaV)
